According to patent publication US20110097745A1, “Method For Detecting Microbes” (priority 2007, published 2011):
Values after ≈ are worked out from the molar mass of the structure shown.

Experiments:
E. coli (W4110) = test: overnight disk diffusion test; assay type: cell-based; settings: disk 30 ppm, 16 hrs 37 C
Method: (§1) Infecting bacteria (10^6 cells/ml from overnight grown cultures) were spread on LA plates on which 15 mm disks, saturated with various antibiotics, had been placed. After incubating the plates at 37 degrees Celsius for 16 hrs the zone of inhibition was determined for each strain. (Abbreviations used in FIG. 1a and Table 1a: CAP—Chloramphenicol; KAN—Kanamycin; AMP—Ampicillin; CEP—Cephamezin GEN—Gentamycin).

P. aeroginosa [1] = test: overnight disk diffusion test; assay type: cell-based; settings: disk 30 ppm, 16 hrs 37 C
Method: as §1

S. typhimirium (772) = test: overnight disk diffusion test; assay type: cell-based; settings: disk 30 ppm, 16 hrs 37 C
Method: as §1

S. typhi = test: microbe, parasite or virus in culture; assay type: cell-based
[2] = tested on: infecting bacteria of urine samples; test: antibiotics disc inhibition zone, urine samples (standard analysis); assay type: cell-based
Method: A standard analysis (urine culture colony count) was performed to evaluate bacterial load (Table 5a) and antibiotic susceptibility (Table 5b).

[3] = tested on: infecting bacteria of urine samples; test: BLT antibiotic susceptibility of urine samples; assay type: cell-based; parameters: BLT (luminescence): unit not given here; settings: for BLT (luminescence): 3 hrs 37 C, concentrations given in Table 5; on antibiotic susceptibility of urine samples: key: R = resistant; S = susceptible
Method: Six fresh urine samples were obtained from a local clinic and examined for bacteriuria (>10^5 cells/mL urine) and the antibiotic susceptibility of the infecting bacteriuria. A tube containing a an antibiotic mixture that would eliminate all infecting bacteria but not effect the lux cells (Ampicillin, Kanamycin, Tetracyclin, and Chloramphenicol) served as a control.
Each urine sample was diluted in Medium 1 to yield a final concentration of 3%. 0.1 mL of the diluted samples were then incubated for 3 hrs. at 37 degrees Celsius in a microtitre plate, with or without an antimicrobial substance at the concentrations given in Table 5).
An equal volume of Medium 2 containing 10 ng/ml autoinducer and supplemented with 10^6 of the lux cells was then added to each well. The microtiter plate was then incubated at 28 degrees/Celsius and the luminescence was measured using a plate reader luminometer.
Luminescence was measured in the absence of antibiotics, in the presence of a mixture of antibiotics and in the presence of a single antibiotic from the mixture.
When the ratio of the luminescence measured in the presence of the single antibiotic to that measured in the presence of the antibiotic mix exceeds a second predetermined constant (e.g. 3) then the infecting bacteria are […] to the antibiotic.

S. aureus [4] = test: BLT (bioluminescence test) MIC determination
E. coli (W4100) = test: Gram differentiation with CTAB, tester bacteria luminescence; assay type: cell-based; settings: +CTAB (3 ppm), 2 hrs 37 C, read after 60 min
Method: (§2) Gram-positive bacteria are more sensitive than Gram-negative bacteria to low concentrations of the cationic detergent CTAB. Overnight grown cultures of different strains of infecting bacteria were washed and suspended in saline. About 10^5 cells/well were aliquoted in 0.1 mL Medium 1 (Davis, 0.1% glucose, 25 ppm YE) in microtiter plates with or without 3 ppm of CTAB. After 2 hrs at 37 degrees Centigrade/Celsius?, 0.15 mL of Medium 2 (+10 ng/mL autoinducer) were added to each well, together with 10^6 cells/mL lux-cells. Luminescence was recorded after 60 min.

P. aeroginosa [5] = test: as above; assay type: cell-based; settings: +CTAB (3 ppm), 2 hrs 37 C, read after 60 min
Method: as §2

S. aureus [6] = test: as above; assay type: cell-based; settings: +CTAB (3 ppm), 2 hrs 37 C, read after 60 min
Method: as §2

S. typhi (772) = test: as above; assay type: cell-based; settings: +CTAB (3 ppm), 2 hrs 37 C, read after 60 min
Method: as §2

Streptococcus sp. = test: as above; assay type: cell-based; settings: +CTAB (3 ppm), 2 hrs 37 C, read after 60 min
Method: as §2

Q: What does the source list for `O=C(N[C@H](CO)[C@H](O)c1ccc([N+](=O)[O-])cc1)C(Cl)Cl` [Chloramphenicol]?
A: zone of inhibition (E. coli (W4110)): 25 mm; zone of inhibition (P. aeroginosa [1]): 15 mm; zone of inhibition (S. typhimirium (772)): 30 mm; LU, fold increase over control (no antibiotics added) (S. typhi; 0.19 ppm): 0.7; LU, fold increase over control (no antibiotics added) (S. typhi; 0.39 ppm): 0.72; LU, fold increase over control (no antibiotics added) (S. typhi; 0.78 ppm): 0.63; LU, fold increase over control (no antibiotics added) (S. typhi; 1.5 ppm): 0.74; LU, fold increase over control (no antibiotics added) (S. typhi; 3.1 ppm): 1.9; LU, fold increase over control (no antibiotics added) (S. typhi; 6.25 ppm): 3.61; LU, fold increase over control (no antibiotics added) (S. typhi; 12.5 ppm): 5.42; LU, fold increase over control (no antibiotics added) (S. typhi; 25 ppm): 6.84; LU, fold increase over control (no antibiotics added) (S. typhi; 50 ppm): 5.84; MIC (S. typhi; Salmonella enterica, TYPHI, lowest concentration giving two-fold increase of tester luminescence above control): ~3 µg/mL (≈ 9.28 µM); Antibiotics disc inhibition zone ([2]; urine sample 1, 30 ppm): 5 mm; Antibiotics disc inhibition zone ([2]; urine sample 2, 30 ppm): 4 mm; Antibiotics disc inhibition zone ([2]; urine sample 3, 30 ppm): 7 mm; Antibiotics disc inhibition zone ([2]; urine sample 4, 30 ppm): 5 mm; Antibiotics disc inhibition zone ([2]; urine sample 6, 30 ppm): 6 mm; antibiotic susceptibility of urine samples ([3]; urine sample 1): S; BLT (luminescence) ([3]; urine sample 1, 3% urine): 62; antibiotic susceptibility of urine samples ([3]; urine sample 2): S; BLT (luminescence) ([3]; urine sample 2, 3% urine): 46; antibiotic susceptibility of urine samples ([3]; urine sample 3): S; BLT (luminescence) ([3]; urine sample 3, 3% urine): 36; antibiotic susceptibility of urine samples ([3]; urine sample 4): S; BLT (luminescence) ([3]; urine sample 4, 3% urine): 31.2; antibiotic susceptibility of urine samples ([3]; urine sample 5): S; BLT (luminescence) ([3]; urine sample 5, 3% urine): 13; antibiotic susceptibility of urine samples ([3]; urine sample 6): S; BLT (luminescence) ([3]; urine sample 6, 3% urine): 41; LU, fold increase over control (no antibiotics added) (S. aureus [4]; 0.781 ppm): 0.8; LU, fold increase over control (no antibiotics added) (S. aureus [4]; 1.562 ppm): 1.3; LU, fold increase over control (no antibiotics added) (S. aureus [4]; 3.125 ppm): 2.8; LU, fold increase over control (no antibiotics added) (S. aureus [4]; 6.25 ppm): 5.2; LU, fold increase over control (no antibiotics added) (S. aureus [4]; 12.5 ppm): 7.2; LU, fold increase over control (no antibiotics added) (S. aureus [4]; 25 ppm): 11.5; LU, fold increase over control (no antibiotics added) (S. aureus [4]; 50 ppm): 17.6; LU, fold increase over control (no antibiotics added) (S. aureus [4]; 100 ppm): 70.1; MIC (S. aureus [4]; Staphylococcus aureus): ~1.5 µg/mL (≈ 4.64 µM)

Q: With `CCCCCCCCCCCCCCCC[N+](C)(C)C.[Br-]` [CTAB, Cetyltrimethylammonium bromide] as the compound, how does the “luminescence of tester bacteria” value (E. coli (W4100)) read?
A: The value was 52 LU.

Q: What about the “luminescence of tester bacteria” value (P. aeroginosa [5]) of the same compound?
A: The value was 111 LU.

Q: And the “luminescence of tester bacteria” value (S. aureus [6])?
A: The value was 80,405 LU.

Q: What about the “luminescence of tester bacteria” value (S. typhi (772)) of the same compound?
A: Its value is 64 LU.

Q: What about the “luminescence of tester bacteria” value (Streptococcus sp.) of the same compound?
A: The value was 10,154 LU.
